Experimental data as given in patent US20150283147A1, “TREATING POLYCYSTIC KIDNEY DISEASE WITH HSP90 INHIBITORY COMPOUNDS” (SYNTA PHARMACEUTICALS CORP., priority 2012, published 2015).
“Also recorded” adds a separate entry of the source.

Assays:
Her2 = assay: Degradation of Her2 in BT-474 cells (Method 1, Western blot); type: cell-based, Human; conditions: 0.5 μM, overnight
Description: Human high-Her2 breast carcinoma BT474 (HTB-20), SK-BR-3 (HTB-30) and MCF-7 breast carcinoma (HTB-22) from American Type Culture Collection, VA, USA were grown in Dulbecco's modified Eagle's medium with 4 mM L-glutamine and antibiotics (100 IU/ml penicillin and 100 ug/ml streptomycine;GibcoBRL). To obtain exponential cell growth, cells were trypsinized, counted and seeded at a cell density of 0.5×10^6 cells/ml regularly, every 3 days. All experiments were performed on day 1 after cell passage.
BT-474 cells are treated with 0.5 μM, 2 μM, or 5 μM of 17AAG (a positive control) or 0.5 μM, 2 μM, or 5 μM of a compound of the invention overnight in DMEM medium. After treatment, each cytoplasmic sample is prepared from 1×10^6 cells by incubation of cell lysis buffer (#9803, cell Signaling Technology) on ice for 10 minutes. The resulting supernatant used as the cytosol fractions is dissolved with sample buffer for SDS-PAGE and run on a SDS-PAGE gel, blotted onto a nitrocellulose membrane by using semi-dry transfer. Non-specific binding to nitrocellulose is blocked with 5% skim milk in TBS with 0.5% Tween at room temperature for 1 hour, then probed with anti-Her2/ErB2 mAb (rabbit IgG, #2242, Cell Signaling) and anti-Tubulin (T9026, Sigma) as housekeeping control protein. […]

Kasumi-1 cells = conditions: Kasumi-1 acute myeloid leukemia cell line with c-Kit mutation; cited from earlier work
[1] = system: leukemia cells that express either wild type FLT3 or FLT3-ITD mutations; conditions: cited from earlier work
FLT3 with Hsp90 = conditions: cited from earlier work
Pkd1^−/− mice = assay: Cyst formation and kidney growth in conditional Pkd1-/- mice (MRI, kidney weight, cystic index, BUN); type: in vivo
Description: All experiments involving mice were approved by the Institutional Animal Care and Use Committee of Fox Chase Cancer Center. Conditional Pkd1^−/− mice using the Cre-flox regulatory system for targeted inactivation of the Pkd1 gene in vivo were kindly provided by Gregory Germino (National Institute of Diabetes and Digestive and Kidney Diseases). Pkd1fl/fl;Cre/Esr1+ (referred to as Pkd1^−/−) and control mice (Pkd1fl/fl;Cre/Esr1−; referred to as Control) mice were injected intraperitoneally with tamoxifen (250 mg/kg body weight) on postnatal day P37/P38 (+/−1 day) to induce Pkd1 deletion in the test group.
Compound 111 was formulated in 5% dextrose titrated to pH 4, and administered by tail vein injection in anesthetized mice under sterile conditions using a volume of 10 μl/g body weight. Vehicle treated mice were injected with 5% dextrose only. To investigate the activity of compound 111 on early kidney disease, mice were treated with compound 111 for 5 months, starting 2-3 days after Pkd1 deletion. Treatment began with a weekly schedule up to 4 months of age, including one week off in the 3rd month of age, followed by a bi-weekly schedule from 4 to 6 month of age. 24 hours after the 16th injection, blood samples were collected and the mice were sacrificed to collect organs for histopathological and biochemical analysis. To investigate the activity of compound 111 on Late kidney disease, mice were dosed weekly with compound 111 for 10 weeks starting at 4 months of age. 24 hours after the 11th dose (10 weeks of treatment), blood samples were collected and the mice were sacrificed to collect organs for histopathological and biochemical analysis.
To assess the utility of HSP90 inhibition in ADPKD, Pkd1fl/fl;Cre/Esr1+ (referred to as Pkd1^−/−) and control Pkd1fl/fl;Cre/Esr1− (referred to as control) mice were injected with tamoxifen at 5-6 weeks of age to inactivate the Pkd1 gene. HSP90 was inhibited using compound, a resorcinolic triazole that competitively binds the N-terminal ATP pocket of HSP90. In one cohort of mice (designated Early), mice were dosed from 6 weeks-4 months of age, to assess drug effects on disease initiation (FIG. 1). […] (FIGS. 2-3)
In a second cohort (designated Late), mice were dosed from 4-6 months of age, to assess drug effects on mice with Late cysts, in this case using doses of 50 mg/kg and 100 mg/kg to explore dose range (FIGS. 4-6).
Mice were imaged in a vertical bore MR system at a field strength of 7 Tesla, using a Bruker DRX300 spectrometer, Paravision 3.0.2 software, and a single tuned ^1H cylindrical radiofrequency coil. […]
Using NIH ImageJ, an open source image analysis program, kidney and cyst volume were quantified. […]

## C=CCNC1=C2C[C@@H](C)C[C@H](OC)[C@H](O)[C@@H](C)/C=C(\C)[C@H](OC(N)=O)[C@@H](OC)/C=C\C=C(/C)C(=O)NC(=CC1=O)C2=O [Compound 17AAG]
Her2
  degradation of Her2: partial degradation
Kasumi-1 cells
  apoptosis: induce apoptosis
[1]
  growth of leukemia cells: inhibited
FLT3 with Hsp90
  association of FLT3 with Hsp90: disrupt the association of FLT3 with Hsp90

## CC(C)c1cc(-c2nnc(C(=O)NCCN3CCOCC3)n2-c2ccc(CN3CCOCC3)cc2)c(O)cc1O [Compound 111, 5-(2,4-dihydroxy-5-isopropylphenyl)-N-(2-morpholinoethyl)-4-(4-(morpholinomethyl)phenyl)-4H-1,2,4-triazole-3-carboxamide]
Pkd1^−/− mice; Early cohort, 75 mg/kg, blood drawn at euthanasia
  blood urea nitrogen (BUN): trend towards reduction
Pkd1^−/− mice; Early cohort, Pkd1−/− mice, 75 mg/kg, tail vein injection, 5 months
  formation of renal cysts and kidney growth: very significantly reduced; also recorded: inhibited cyst formation, kidney growth
Pkd1^−/− mice; Late cohort, 50 mg/kg and 100 mg/kg, 1×/week for 10 weeks, tail vein injection
  reduction of cyst volume and kidney growth: significant, dose-dependent effect; also recorded: reduced cystic burden
Pkd1^−/− mice; Late cohort, 100 mg/kg, 10 weeks
  BUN scores: reduced BUN scores to normal levels
